The values that follow come from PMC8232621, “Antimicrobial Activity of a Library of Thioxanthones and Their Potential as Efflux Pump Inhibitors” (Pharmaceuticals, 2021).

Like-named read-outs stand apart in the source and are kept apart here.

One experiment concerns S. aureus ATCC 29213. As to the kind of experiment: Inhibition of biofilm formation (crystal violet). To be noted: Staphylococcus aureus, ATCC29213, 48 h. The experiment is classed as cell-based.
The next experiment deals with wt85. As to the kind of experiment: Quorum sensing inhibition assay (pigment production). The experiment is classed as cell-based, Chromobacterium violaceum wild-type 85. Particulars: Chromobacterium violaceum, read-out: Quorum Sensing Inhibition (mm) ± SD. How it is done:
Concerning the QS inhibition assay, the sensor strain Chromobacterium violaceum CV026 and the AHL producer strain Sphingomonas paucimobilis Ezf 10-17 (EZF) were inoculated as parallel lines, and the AHL producers Chromobacterium violaceum wild-type 85 (wt85) and Serratia marcescens AS-1 were inoculated as a single line. The interaction between the strains and compounds 2–18 was evaluated as the reduction of pigment production, in millimeters (mm) (Table 5) with promethazine (PMZ) as a positive control.
The QS inhibitory effect of the compounds was examined on the EZF and the sensor CV026 strains, on the wt85 strain, and on S. marcescens. The method used was the parallel inoculation method, where pair combinations of the used sensor strain CV026 and the N-acyl-homoserine lactone (AHL) producing strain EZF were inoculated directly onto the LB*-A agar surface in parallel, at an approximate distance of 5 mm from each other. S. marcescens AS-1 and wt85 were inoculated as a single line. Filter paper disks (7 mm in diameter) were placed on the center of the inoculated line(s) and impregnated with 8 µL of a solution of 10 mM of the compounds. […] The agar plates were incubated at room temperature (20 °C) for 24−48 h. The QS inhibition was accessed visually, through the inhibition of pigment production. The discolored, but intact, bacterial colonies were measured with a ruler.

In another experiment the test system is S. aureus 272123. As to the kind of experiment: Inhibition of biofilm formation (crystal violet). The experiment is classed as cell-based, Staphylococcus aureus. To be noted: read-out: Biofilm Inhibition (%) ± SD. On the procedure: Efflux mechanisms are one of the factors that can lead to biofilm-mediated resistance, along with slow growth and reduced penetration due to production of extracellular polysaccharides. […] Additionally, they can also modulate QS, through an influence in the transport of QS signal molecules. Thioxanthones 2–18 were tested for their potential for inhibiting biofilm formation by S. aureus ATCC 29213 and the multi-resistant S. aureus 272123. The biofilm inhibition, presented in percentage (%), was calculated based on the mean of absorbance units. Reserpine, which has previously been described as both an efflux pump inhibitor and an inhibitor of biofilm formation in Gram-positive bacteria was used as control in both strains.
The thioxanthone derivatives were tested for their ability to decrease the formation of biofilm. The bacterial strains used were the Gram-positive S. aureus […] and S. aureus 272123. The detection of the biofilm formation was carried out using the dye crystal violet (CV; 0.1% v/v). The initial inoculum was incubated in TSB overnight, and then diluted to an OD600 of 0.1. […] This meant that compound 12 was added at 50 µM, while the rest of the compounds were added at the concentration of 100 µM. The final volume in each well was 200 µL. Reserpine was used as a positive control, as it was the same compound used in the efflux pump inhibition assay and it has shown activity in the inhibition of biofilm formation in S. aureus strains. The plates were incubated at 30 °C for 48 h, with gentle stirring (100 rpm). After this incubation period, the TSB medium was discarded, and the plates were washed with tap water to remove unattached cells. Afterwards, 200 µL of a 0.1% v/v CV solution were added to the wells and incubated for 15 min at room temperature. Then, the CV solution was removed from the wells, and the plates were washed again with tap water, and 200 µL of a 70% ethanol solution was added to the wells. The biofilm formation was determined by measuring the OD600 using a Multiscan EX ELISA plate reader (Thermo Labsystems, Cheshire, WA, USA). The anti-biofilm effect of the compounds was expressed in the percentage (%) of decrease of biofilm formation.

In another experiment the test system is SE03. As to the kind of experiment: Antibacterial activity, broth microdilution MIC. Particulars: Salmonella enterica, read-out: Minimum Inhibitory Concentration (MIC). The experiment is classed as cell-based, Salmonella enterica serovar Typhimurium SL1344. The text has this: The referred library of thioxanthones was initially tested for their antimicrobial activity against six bacterial strains: the Gram-negative Escherichia coli ATCC 25922, Pseudomonas aeruginosa ATCC 27853 and Salmonella enterica serovar Typhimurium SL1344 (SE03), with the acrA gene deleted, and the Gram-positive Staphylococcus aureus ATCC 29213, Enterococcus faecalis ATCC 29212 and the methicillin and ofloxacin-resistant clinical isolate S. aureus 272123. For the synergy assay, two clinically relevant isolates were used: the extended-spectrum β-lactamase (ESBL)-producing E. coli SA/2 [23] and the vancomycin-resistant E. faecalis (VRE) B3/101 [23]. The antibiotics used were cefotaxime (CTX) and vancomycin (VAN), respectively.
The minimum inhibitory concentration (MIC) for each compound was determined by broth microdilution method in a 96-well plate according to the Clinical and Laboratory Standard Institute (CLSI) guidelines. The medium used was MHB II. The concentrations tested ranged from 100 µM to 0.195 µM and were prepared from a stock solution of 10 mM in DMSO, for S. aureus 272123 and SE03; for the other strains, the concentrations tested ranged from 64 µg/mL to 4 µg/mL and were prepared from a stock solution of 10 mg/mL in DMSO. DMSO was used in subinhibitory concentrations (1% v/v). The MIC was determined by visual inspection.
(In general: Dilution methods test growth across graded concentrations, often in twofold steps.)

The mark [1] stands for this setting: S. aureus ATCC 29213, compounds 100 µM (compound 12 at 50 µM), read-out: Biofilm Inhibition (%) ± SD.
Where [2] appears, read: Staphylococcus aureus, S. aureus 272123, compounds 100 µM (compound 12 at 50 µM), 48 h.

What is called inhibition is the change of the read-out against control, counted positive when it falls. Turning to `CCCOc1ccc(NCCN(CC)CC)c2c(=O)c3ccccc3sc12` [Compound 2], the inhibition at 100 µM in the experiment on S. aureus ATCC 29213 (setting [1]) was 0.53 ± 1.05%; in the experiment on S. aureus 272123 (setting [2]) it was 81.1 ± 1.18%. Besides, in the experiment on wt85, the zone of inhibition at 10000 µM amounted to 0 mm. Further, the MIC in the experiment on SE03 is greater than 100 µM.
Regarding `CCCOc1ccc(N2CCCCC2)c2c(=O)c3ccccc3sc12` [Compound 3], the inhibition at 100 µM in the experiment on S. aureus ATCC 29213 (read-out: Biofilm Inhibition (%) ± SD, S. aureus ATCC 29213, compounds 100 µM (compound 12 at 50 µM)) was greater than 90%; in the experiment with S. aureus 272123 (Staphylococcus aureus, 272123, 48 h), 93.49 ± 0.33%. Also, the zone of inhibition at 10000 µM with wt85 was determined as 0 mm. Also, the MIC with SE03 is greater than 100 µM.
On to `CCCOc1ccc(Nc2nc(C)cc(C)n2)c2c(=O)c3ccccc3sc12` [Compound 8, 1-[(4,6-Dimethylpyrimidin-2-yl)amino]-4-propoxy-9H-thioxanthen-9-one], for which the inhibition at 100 µM with S. aureus ATCC 29213 (setting [1]) and in the experiment on S. aureus 272123 (setting [2]) was 0% throughout. In addition, the zone of inhibition at 10000 µM with wt85 was found to be 0 mm. Moreover, the MIC in the experiment on SE03 is greater than 100 µM.
As for `CCCOc1ccc(N2CCNC(=O)C2)c2c(=O)c3ccccc3sc12` [Compound 9, 4-(9-Oxo-4-propoxy-9H-thioxanthen-1-yl)piperazin-2-one], the inhibition at 100 µM in the experiment with S. aureus ATCC 29213 (setting [1]) was 5.18 ± 1.02%; with S. aureus 272123 (setting [2]), 31.5 ± 8.99%. In the experiment with wt85, the zone of inhibition at 10000 µM is 0 mm. In the experiment on SE03, the MIC is greater than 100 µM.
As to `CCCOc1ccc(NCCO)c2c(=O)c3ccccc3sc12` [Compound 10, 1-[(2-Hydroxyethyl)amino]-4-propoxy-9H-thioxanthen-9-one], the values for the inhibition at 100 µM with S. aureus ATCC 29213 (setting [1]) and in the experiment on S. aureus 272123 (setting [2]) were 0% and 55.2 ± 4.2%, respectively. Moreover, the zone of inhibition at 10000 µM with wt85 was found to be 0 mm. Besides, the MIC with SE03 was greater than 100 µM.
Taken in the same sequence, the figures for `CCCOc1ccc(NCCN2CCOCC2)c2c(=O)c3ccccc3sc12` [Compound 11, 1-[(2-Morpholinoethyl)amino]-4-propoxy-9H-thioxanthen-9-one] were 0%, 20.2 ± 4%, 0 mm and greater than 100 µM.
With `CCCOc1ccc(NS(=O)(=O)c2ccc(C(=O)O)cc2)c2c(=O)c3ccccc3sc12` [Compound 12, 4-[N-(9-Oxo-4-propoxy-9H-thioxanthen-1-yl)sulfamoyl]benzoic acid], the inhibition at 100 µM in the experiment with S. aureus ATCC 29213 (setting [1]) is roughly 53%. Moreover, the zone of inhibition at 10000 µM in the experiment with wt85 is 0 mm. For the same molecule, the MIC with SE03 was 50 µM.
In the case of `CCCOc1ccc(NS(=O)(=O)c2ccc(N)cc2)c2c(=O)c3ccccc3sc12` [Compound 13, 4-Amino-N-(9-oxo-4-propoxy-9H-thioxanthen-1-yl)benzenesulfonamide], the inhibition at 100 µM in the experiment on S. aureus ATCC 29213 (setting [1]) came to 0.42 ± 1.36%; with S. aureus 272123 (setting [2]), 72 ± 6.66%. Besides, the zone of inhibition at 10000 µM in the experiment on wt85 worked out at 0 mm. Also, the MIC in the experiment with SE03 is greater than 100 µM.
`CCCOc1ccc(Br)c2c(=O)c3ccccc3sc12` [Compound 14, 1-Bromo-4-propoxy-9H-thioxanthen-9-one]: the values for the inhibition at 100 µM with S. aureus ATCC 29213 (setting [1]) and in the experiment with S. aureus 272123 (setting [2]) were 0% and 2.46 ± 0.72%, respectively. In addition, the zone of inhibition at 10000 µM with wt85 turned out to be 0 mm. Also, the MIC in the experiment with SE03 was greater than 100 µM.
Consider `CCCOc1ccc2ncnc3c2c1Sc1ccccc1-3` [Compound 15], for which the inhibition at 100 µM in the experiment with S. aureus ATCC 29213 (setting [1]) worked out at 0%; in the experiment on S. aureus 272123 (setting [2]), 76 ± 2.06%. For the same molecule, in the experiment with wt85, the zone of inhibition at 10000 µM worked out at 0 mm. For the same molecule, the MIC in the experiment with SE03 was greater than 100 µM.
On to `CCCOc1ccc2nc(N)nc3c2c1Sc1ccccc1-3` [Compound 16], for which the inhibition at 100 µM in the experiment with S. aureus ATCC 29213 (setting [1]) was determined as 0%; with S. aureus 272123 (setting [2]), 73.6 ± 1.8%. Also, the zone of inhibition at 10000 µM with wt85 came to 0 mm. Further, in the experiment with SE03, the MIC is greater than 100 µM.
In the case of `CCCOc1ccc2nc(NCc3ccccc3Cl)nc3c2c1Sc1ccccc1-3` [Compound 17], the inhibition at 100 µM with S. aureus ATCC 29213 (setting [1]) is 0%; in the experiment on S. aureus 272123 (setting [2]), 6.32 ± 4.32%. In addition, in the experiment with wt85, the zone of inhibition at 10000 µM was found to be 0 mm. Moreover, in the experiment on SE03, the MIC is greater than 100 µM.
As to `CCCOc1ccc2c3c(n/c(=N\c4ccccc4C)n2-c2ccccc2C)-c2ccccc2Sc13` [Compound 18], the results for the inhibition at 100 µM in the experiment with S. aureus ATCC 29213 (setting [1]) and in the experiment with S. aureus 272123 (setting [2]) were 19.7 ± 7.46% and 1.62 ± 2.43%, respectively. In the experiment on wt85, the zone of inhibition at 10000 µM came to 0 mm. In addition, in the experiment on SE03, the MIC is greater than 100 µM.
